Source: patent US11945875B2, “Motile sperm domain containing protein 2 and cancer” (ImmuneWalk Therapeutics, Inc., priority 2015, dated 2024)
Entries after “also recorded” stand apart in the source; their conditions may differ.

How the values were obtained:
[1] = tested on: EGF induced phosphorylation of AKT; experiment: EGF-induced phosphorylation of AKT in MDA-231 cells, Western blot; assay type: cell-based, human; details: 20 min pre-incubation, EGF 200 ng/ml 10 min
Protocol: In vitro: To test the effect of VB-201 on epidermal growth factor (EGF)-induced phosphorylation, MDA-231 breast cancer cells (10^6) were starved for 3 hours in 0.5% FCS medium, followed by incubation with various concentrations of VB-201 (1 μg/ml, 5 μg/ml, and 10 μg/ml) or a solvent control for 20 minutes. The MDA-231 cells were then activated with EGF (200 ng/ml) for 10 min. Phosphorylation of AKT was then analyzed by Western Blot. HSP90 was used for a loading control.

TLR2 = target: T1, TLR2 (Homo sapiens, UniProt O60603); experiment: Precipitation of proteins from human CD14 monocyte lysate with labelled VB-201 or VB-221, Western blot; assay type: binding; details: ovalbumin-biotin labelled compound (OB201/OB221)
T1 construct: endogenous in cells; host or cells: human CD14 monocytes
Protocol: (§1) VB-201 and VB-221 were labeled with biotin as follows. VB-201, VB-221 and ovalbumin (OVA, Sigma, Israel) were dissolved in 0.1 M MES buffer (Thermo Scientific, Rockford, IL) and conjugated using EDC [1-ethyl-3-(dimethylaminopropyl) carbodiimide HCL] (Thermo Scientific) at a molar ratio of 100 (VB-201/VB-221):1 (OVA):240 (EDC) for 2-3 hr at room temperature. After which, samples were transferred to 10 kDa dialysis cassettes (Thermo Scientific) and dialyzed overnight against PBS. The ovalbumin bound VB-201 (OB201) and VB-221 (OB221) were then conjugated with amine-PEG2-biotin (in 0.1 M MES buffer) using EDC at a molar ratio of 1 (OB201/OB221):100 (amine-PEG2-biotin):700 (EDC). The reaction was allowed to proceed for 2-3 hours at room temperature after which samples were again transferred to a 10 kDa dialysis cassette and dialyzed overnight against PBS.
(§2) Cells were lysed using a 1% NP-40 lysis buffer containing 1:100 protease and phosphatase inhibitors, followed by 20 min incubation on ice and 15 min centrifugation at maximum speed. Samples were incubated overnight at 4° C. with solvent, OB201 or OB221 in a rotator. Streptavidin agarose beads (Sigma, Israel) were added for 2 hours. Protein elution was performed with lysis buffer without DTT for 10 min at room temperature. Sample loading, transfer and immuno-blotting were performed as described above. […]

human monocytes = details: cited from earlier work
MOSPD2 [2] = target: T2, MOSPD2 (Homo sapiens, UniProt Q8NHP6); experiment: Binding to HEK293 cells transfected with HA-tagged human MOSPD2; design: expressed in transfected cells; host or cells: HEK293; details: ovalbumin labeled compound
T2 sequence (Q8NHP6 1-518): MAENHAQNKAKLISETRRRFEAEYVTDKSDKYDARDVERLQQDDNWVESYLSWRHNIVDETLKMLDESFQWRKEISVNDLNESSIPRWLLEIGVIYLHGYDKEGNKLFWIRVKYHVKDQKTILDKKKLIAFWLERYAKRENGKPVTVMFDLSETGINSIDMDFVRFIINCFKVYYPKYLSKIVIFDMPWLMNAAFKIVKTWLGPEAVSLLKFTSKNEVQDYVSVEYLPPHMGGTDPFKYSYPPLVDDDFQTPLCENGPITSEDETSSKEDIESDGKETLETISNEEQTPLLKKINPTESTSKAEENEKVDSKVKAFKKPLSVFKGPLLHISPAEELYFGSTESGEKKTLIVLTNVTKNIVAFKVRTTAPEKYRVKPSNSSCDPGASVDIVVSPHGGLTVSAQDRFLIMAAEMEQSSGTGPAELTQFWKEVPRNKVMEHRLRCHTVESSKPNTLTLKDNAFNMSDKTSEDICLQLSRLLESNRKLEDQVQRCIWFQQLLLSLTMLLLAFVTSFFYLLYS
From the text: VB-201 inhibits human monocyte chemotaxis in vitro and signaling pathways activated downstream of chemokine receptors.

MOSPD2 [3] = target: T2, MOSPD2; experiment: Precipitation of proteins from human CD14 monocyte lysate with labelled VB-201 or VB-221, Western blot; assay type: binding; design: endogenous in cells; host or cells: human CD14 monocytes; details: ovalbumin-biotin labelled compound (OB201/OB221)
Protocol: as §1, §2

MOSPD2 [4] = target: T2, MOSPD2; experiment: Mass-Spectrometry differential display of proteins precipitated from human monocytes; assay type: binding; design: endogenous in cells; host or cells: human CD14 monocytes; details: labeled compound
From the text: Using labeled VB-201 and VB-221, proteins from human monocytes were precipitated and differential display by Mass-Spectrometry, was studied.

T1 sequence (O60603 21-784): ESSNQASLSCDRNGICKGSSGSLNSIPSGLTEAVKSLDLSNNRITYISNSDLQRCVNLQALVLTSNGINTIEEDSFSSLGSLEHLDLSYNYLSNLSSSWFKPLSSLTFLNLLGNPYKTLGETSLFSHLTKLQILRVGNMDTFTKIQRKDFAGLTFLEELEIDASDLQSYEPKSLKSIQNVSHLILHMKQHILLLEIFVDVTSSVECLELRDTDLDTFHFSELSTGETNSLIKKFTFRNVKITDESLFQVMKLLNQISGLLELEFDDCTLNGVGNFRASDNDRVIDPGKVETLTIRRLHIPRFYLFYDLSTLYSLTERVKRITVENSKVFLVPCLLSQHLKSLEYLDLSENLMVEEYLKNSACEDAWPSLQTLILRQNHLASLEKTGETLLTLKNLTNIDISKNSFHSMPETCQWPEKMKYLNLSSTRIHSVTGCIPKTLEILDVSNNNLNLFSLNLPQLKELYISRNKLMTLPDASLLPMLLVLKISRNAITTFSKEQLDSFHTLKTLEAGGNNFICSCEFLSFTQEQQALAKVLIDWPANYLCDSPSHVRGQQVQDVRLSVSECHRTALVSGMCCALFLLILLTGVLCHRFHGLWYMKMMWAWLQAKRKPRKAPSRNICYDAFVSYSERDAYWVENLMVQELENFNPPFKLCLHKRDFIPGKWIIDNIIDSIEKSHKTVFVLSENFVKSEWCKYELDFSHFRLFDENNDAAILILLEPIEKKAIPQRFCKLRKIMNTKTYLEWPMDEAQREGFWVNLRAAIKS

SMILES | inhibition of EGF induced phosphorylation of AKT ([1]; 5 μg/ml) | inhibition of EGF induced phosphorylation of AKT ([1]; 10 μg/ml) | precipitation of TLR2 (TLR2) | inhibition of monocyte chemotaxis / chemokine-induced signaling and migration (human monocytes) | binding to HA-positive HEK293 cells expressing human MOSPD2 (MOSPD2 [2]) | binding / precipitation of MOSPD2 (MOSPD2 [3]) | binding of MOSPD2 by Mass-Spectrometry (MOSPD2 [4])
CCCCCCCCCCCCCCCCOC[C@H](COP(=O)([O-])OCC[N+](C)(C)C)OCCCCC(=O)O [VB-201, 1-hexadecyl-2-(4′-carboxy)butyl-glycero-3-phosphocholine] | significant inhibition | nearly completely inhibits | comparable intensity | inhibits migration | strong binding | binds and precipitates MOSPD2; also recorded: markedly more intense than VB-221; also recorded: binds to MOSPD2 | strong binding
CCCCCCCCCCC(CCCCCCCC)COCC(COP(=O)([O-])OCC[N+](C)(C)C)OCCCCC(=O)O (stereo not drawn) [VB-221, 1-(2′-octyl)dodecyl-2-(4′-carboxy)butyl-glycero-3-phosphocholine] | – | – | comparable intensity | does not inhibit; also recorded: did not inhibit | – | – | –
